The target in test [1] is T1, NS3 (Hepatitis C virus, UniProt A3EZJ3). The experiment in a line: Inhibitory activity against hepatitis C virus (HCV) NS3 protease in the presence of Zn2+. Set-up: species or system Hepacivirus hominis.
The target of test [2] is T1, NS3. The experiment in a line: Inhibitory activity against hepatitis C virus (HCV) NS3 protease in the absence of Zn2+. Set-up: species or system Hepacivirus hominis.

The structures appear in SMILES notation. pIC50: −log10 of the molar value.

T1 sequence (A3EZJ3 whole entry): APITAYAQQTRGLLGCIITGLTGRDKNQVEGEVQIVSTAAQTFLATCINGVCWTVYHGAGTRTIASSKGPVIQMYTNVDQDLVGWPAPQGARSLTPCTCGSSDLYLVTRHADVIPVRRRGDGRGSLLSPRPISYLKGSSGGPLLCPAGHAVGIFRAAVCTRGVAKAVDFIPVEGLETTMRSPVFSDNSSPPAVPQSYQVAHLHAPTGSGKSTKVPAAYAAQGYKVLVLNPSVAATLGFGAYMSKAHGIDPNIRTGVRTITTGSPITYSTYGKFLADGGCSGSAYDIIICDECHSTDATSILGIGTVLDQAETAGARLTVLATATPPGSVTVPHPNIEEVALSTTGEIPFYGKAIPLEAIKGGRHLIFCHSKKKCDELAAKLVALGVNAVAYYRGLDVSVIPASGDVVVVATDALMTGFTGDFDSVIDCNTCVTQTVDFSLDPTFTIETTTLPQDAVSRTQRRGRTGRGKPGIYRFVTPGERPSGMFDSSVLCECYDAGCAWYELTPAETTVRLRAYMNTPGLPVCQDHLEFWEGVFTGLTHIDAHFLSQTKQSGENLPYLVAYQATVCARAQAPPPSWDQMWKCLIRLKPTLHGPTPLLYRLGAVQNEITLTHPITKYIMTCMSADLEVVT

With `Cn1c(Cc2nc3cc(C(N)=O)ccc3[nH]2)nc2ccc(C(=O)NCCc3ccc(OCC(=O)O)cc3)cc21`, on NS3 [1], the negative logarithm of the IC50 (pIC50) is 4.80.

On to `Cn1c(Cc2nc3ccc(C(N)=O)cc3[nH]2)nc2ccc(C(=O)NC(CCCCCP(=O)(O)O)C(=O)O)cc21` (configuration not stated), for which the pIC50 on NS3 [1] is 6.29.

Turning to `Cn1c(Cc2nc3ccc(C(N)=O)cc3[nH]2)nc2ccc(C(=O)NC(Cc3ccc(C(=O)O)c(OCC(=O)O)c3)C(=O)O)cc21` (configuration not stated), the pIC50 on NS3 [1] is 5.05.

Take `Cn1c(Cc2nc3cc(C(N)=O)ccc3[nH]2)nc2ccc(C(=O)NC(CCCP(=O)(O)O)C(=O)O)cc21` (configuration not stated): the pIC50 at NS3 [1] is 6.09.

Take `COC(=O)c1ccccc1S(=O)(=O)NC(=O)C[C@H](NC(=O)c1ccc2nc(Cc3nc4ccc(C(N)=O)cc4[nH]3)n(C)c2c1)C(=O)OCc1ccccc1`: the pIC50 on NS3 [1] is 4.43.

In the case of `COC(=O)c1ccccc1S(=O)(=O)NC(=O)CC(NC(=O)c1ccc2nc(Cc3nc4ccc(C(N)=O)cc4[nH]3)n(C)c2c1)C(=O)O` (configuration not stated), on NS3 [1], the negative-log IC50 (pIC50) is 5.09.

For the compound `COC(=O)c1ccccc1S(=O)(=O)NC(=O)CC[C@H](NC(=O)c1ccc2nc(Cc3nc4cc(C(N)=O)ccc4[nH]3)n(C)c2c1)C(=O)OCc1ccccc1`, at NS3 [1], the pIC50 is 4.54.

`COC(=O)c1ccccc1S(=O)(=O)NC(=O)CC(NC(=O)c1ccc2nc(Cc3nc4ccccc4[nH]3)n(C)c2c1)C(=O)O` (configuration not stated): the pIC50 at NS3 [1] was 4.96.

Regarding `Cn1c(Cc2nc3ccc(C(N)=O)cc3[nH]2)nc2ccc(C(=O)NC(CCC(=O)NS(=O)(=O)c3ccccc3C(=O)O)C(=O)O)cc21` (configuration not stated), the pIC50 at NS3 [1] was 5.59.

As to `Cn1c(Cc2nc3ccccc3[nH]2)nc2ccc(C(=O)NC(CC(=O)NS(=O)(=O)c3ccccc3C(=O)O)C(=O)O)cc21` (configuration not stated), the pIC50 at NS3 [1] was 5.47.

`Cn1c(Cc2nc3ccc(C(N)=O)cc3[nH]2)nc2ccc(C(=O)NC(Cc3ccc(OCC(=O)O)cc3)C(=O)O)cc21` (configuration not stated): the pIC50 at NS3 [1] was 6.00.

For `Cn1c(Cc2nc3cc(C(N)=O)ccc3[nH]2)nc2ccc(C(=O)NC(Cc3cccc(C(=O)O)c3)C(=O)O)cc21` (configuration not stated), the pIC50 at NS3 [1] is 4.60.

For the compound `Cn1c(Cc2nc3ccccc3[nH]2)nc2ccc(C(=O)NC(CCC(=O)N(CC(=O)O)CC(=O)O)C(=O)O)cc21` (configuration not stated), the pIC50 at NS3 [1] was 5.11.

On to `Cn1c(Cc2nc3cc(C(N)=O)ccc3[nH]2)nc2ccc(C(=O)NC(CP(=O)(O)O)C(=O)O)cc21` (configuration not stated), for which the pIC50 is 3.78 at NS3 [2] and 6.70 on NS3 [1].

Take `Cn1c(Cc2nc3cc(C(N)=O)ccc3[nH]2)nc2ccc(C(=O)Nc3cc(C(=O)O)cc(C(=O)NC(CCC(=O)O)C(=O)O)c3)cc21` (configuration not stated): the pIC50 at NS3 [1] is 5.70.

For `Cn1c(Cc2nc3ccc(C(N)=O)cc3[nH]2)nc2ccc(C(=O)Nc3ccc(C(=O)NC(CCC(=O)O)C(=O)O)cc3)cc21` (configuration not stated), the negative-log IC50 (pIC50) at NS3 [1] is 4.77.

With `Cn1c(Cc2nc3ccc(C(N)=O)cc3[nH]2)nc2ccc(C(=O)Nc3cccc(C(=O)NCCCC(=O)O)c3)cc21`, the pIC50 on NS3 [1] is 4.37.

Turning to `Cn1c(Cc2nc3ccccc3[nH]2)nc2ccc(C(=O)NCCc3ccc(OCC(=O)NS(=O)(=O)c4ccccc4)cc3)cc21`, the pIC50 on NS3 [1] was 4.92.

On to `Cn1c(Cc2nc3ccc(C(N)=O)cc3[nH]2)nc2ccc(C(=O)Nc3cccc(C(=O)NC(CCC(=O)O)C(=O)O)c3)cc21` (configuration not stated), for which the negative-log IC50 (pIC50) at NS3 [1] is 5.19.

As for `Cn1c(Cc2nc3ccc(C(N)=O)cc3[nH]2)nc2ccc(C(=O)NC(Cc3ccc(O)c(C(=O)O)c3)C(=O)O)cc21` (configuration not stated), the negative-log IC50 (pIC50) on NS3 [1] is 5.15.

`Cn1c(Cc2nc3cc(C(N)=O)ccc3[nH]2)nc2ccc(C(=O)NC(Cc3ccc(OCC(=O)O)c(C(=O)O)c3)C(=O)O)cc21` (configuration not stated): the pIC50 on NS3 [1] is 5.40.

Regarding `Cn1c(Cc2nc3cc(C(N)=O)ccc3[nH]2)nc2ccc(C(=O)Nc3cc(C(=O)O)cc(C(=O)NC(CC(=O)O)C(=O)O)c3)cc21` (configuration not stated), the pIC50 at NS3 [1] is 6.00.

Take `Cn1c(Cc2nc3cc(C(N)=O)ccc3[nH]2)nc2ccc(C(=O)NC(CC(C(=O)O)C(=O)O)C(=O)O)cc21` (configuration not stated): the pIC50 on NS3 [1] is 5.59.

Regarding `Cn1c(Cc2nc3ccc(C(N)=O)cc3[nH]2)nc2ccc(C(=O)NC(Cc3cc(OCC(=O)O)ccc3C(=O)O)C(=O)O)cc21` (configuration not stated), the pIC50 on NS3 [1] is 4.92.

Consider `Cn1c(Cc2nc3cc(C(N)=O)ccc3[nH]2)nc2ccc(C(=O)NC(CCP(=O)(O)O)C(=O)O)cc21` (configuration not stated), for which the pIC50 on NS3 [1] was 6.06.

Turning to `Cn1c(Cc2nc3cc(C(N)=O)ccc3[nH]2)nc2ccc(C(=O)NC(CC(=O)NS(=O)(=O)c3ccccc3C(=O)O)C(=O)O)cc21` (configuration not stated), the pIC50 on NS3 [1] was 5.80.

One may read the pIC50 as the IC50 on a negative log10 scale, so that one unit is a factor of ten.

For the origin of these results see ChEMBL document CHEMBL1133939, “Structure-activity relationship studies of a bisbenzimidazole-based, Zn(2+)-dependent inhibitor of HCV NS3 serine protease” (Bioorg Med Chem Lett, 2001).
